Test results as given in PMC5905603, “Purification and characterisation of a quorum quenching AHL-lactonase from the endophytic bacterium Enterobacter sp. CS66” (FEMS Microbiology Letters, 2018).

Test system: T1, AiiE
T1 construct: full-length ORF (ca. 750 bp) in pET-19m, E. coli Rosetta DE3; His6 tag cut off by TEV; 240B1
Test: phenol red proton-release assay (A557), Lineweaver-Burk
Type: biochemical, Enterobacter sp. CS66
Details: 1 mM HEPES, 200 mM NaCl, 50 uM phenol red, pH 7.5
From the text: phenol red proton-release assay (A557), Lineweaver-Burk on AiiE

| Structure (SMILES) | Km [mM] |
| --- | --- |
| CCCC(=O)N[C@H]1CCOC1=O [C4-HSL] | 6.01 |
| CCCCCC(=O)N[C@H]1CCOC1=O [C6-HSL] | 7.88 |
| CCCCCCCC(=O)N[C@H]1CCOC1=O [C8-HSL] | 10.3 |
| CCCCCCCCCC(=O)N[C@H]1CCOC1=O [C10-HSL] | 14.9 |
| CCCCCCCCCCCC(=O)N[C@H]1CCOC1=O [C12-HSL] | 15.2 |
